Molecules are shown by their SMILES. Active and inactive are the calls of the source. The rule behind the calls is not given here.

Sequence of Chaperone protein DnaK (Escherichia coli (strain K12)) (P0A6Y8 whole entry, looked up, the tested form may be a part): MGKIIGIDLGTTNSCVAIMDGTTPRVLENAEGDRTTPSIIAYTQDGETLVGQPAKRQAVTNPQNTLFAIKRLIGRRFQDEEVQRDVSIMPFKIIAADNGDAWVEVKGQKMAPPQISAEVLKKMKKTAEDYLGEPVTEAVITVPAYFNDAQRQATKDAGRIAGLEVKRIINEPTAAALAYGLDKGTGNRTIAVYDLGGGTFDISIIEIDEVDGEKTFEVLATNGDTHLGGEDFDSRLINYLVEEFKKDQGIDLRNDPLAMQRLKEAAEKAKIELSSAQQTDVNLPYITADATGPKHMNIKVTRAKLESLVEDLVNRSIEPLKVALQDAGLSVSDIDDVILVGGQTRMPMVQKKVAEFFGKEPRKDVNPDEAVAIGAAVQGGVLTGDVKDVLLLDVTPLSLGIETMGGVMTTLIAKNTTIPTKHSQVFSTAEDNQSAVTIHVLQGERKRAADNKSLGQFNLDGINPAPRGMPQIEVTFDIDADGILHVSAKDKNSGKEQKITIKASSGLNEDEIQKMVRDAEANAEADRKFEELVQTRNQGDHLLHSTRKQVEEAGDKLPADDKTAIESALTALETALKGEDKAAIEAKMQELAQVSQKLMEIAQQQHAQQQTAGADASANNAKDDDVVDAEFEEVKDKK

This experiment concerns the target Chaperone protein DnaK (Escherichia coli (strain K12)) (UniProt P0A6Y8). As to the kind of experiment: binders of DnaK substrate-binding domain, biophysical, NMR, chaperone (AID 1033). The following applies: Purified DnaK SBD, NMR ligand binding.
`CN1CCN(CC(O)c2ccccc2)CC1` (stereo not given): the Kd (in general, the equilibrium constant for the complex coming apart) was > 4 mM (inactive).
Consider `Nc1ccc2nccnc2c1`, for which the Kd is > 4 mM (inactive).
With `CC1CCc2cc(F)ccc2N1C(=O)c1ccc(=O)[nH]n1` (stereo not given) the figure was > 4 mM (inactive); with `O=C(O)CNS(=O)(=O)c1cccs1`, > 4 mM (inactive).
With `O=C(O)c1c[nH]c2ccccc12` the figure was > 4 mM (inactive).
Under `C#CCCCCCCCCCCCc1ccco1` stands > 4 mM (inactive); under `Cc1cc(C(=O)Nc2cccnc2)no1`, > 4 mM (inactive); under `COC(=O)[C@@H]1OC(=O)C2OC23[C@@]1(C)CCC1[C@]2(C)C(C[C@@H](O)[C@]13C)C(C)(C)[C@H](OC(C)=O)C[C@@H]2OC(C)=O` (stereo not given in full), > 4 mM (inactive).
As for `COc1ccc(C(=O)CC(=O)O)c2c1C=CC(C)(C)O2`, the Kd is > 4 mM (inactive).
With `CCOC(=O)N1CCCC1c1cccnc1` (stereo not given) the figure was > 4 mM (inactive); with `O=C(/C=C/C=C/c1ccc2c(c1)OCO2)N1CCCCC1`, > 4 mM (inactive); with `O=C(Cc1cccs1)N1CCOCC1`, > 4 mM (inactive).
With `COc1cc(OC)c2c(=O)c(-c3ccc4c(c3)OCO4)coc2c1` the figure was > 4 mM (inactive).
In the case of `Cn1c(=O)n(CC(=O)Nc2cccnc2)c2ccccc21`, the Kd was > 4 mM (inactive).
With `NS(=O)(=O)c1ccc2c(c1)OCCO2`, the Kd was > 4 mM (inactive).
With `COc1cc2c(cc1OC)C(C)NCC2` (stereo not given) the figure was > 4 mM (inactive).
Under `Cc1cc(=O)n2ncn(Cc3ccccc3)c2n1` stands > 4 mM (inactive); under `CNc1nc(SC)nc(N2CCOCC2)n1`, > 4 mM (inactive).
With `Cc1nnsc1C(=O)Nc1ccc(C(N)=O)cc1` the figure was > 4 mM (inactive).
Take `NC(Cc1c[nH]c2ccccc12)C(=O)O` (stereo not given): the Kd was > 4 mM (inactive).
Take `COc1ccc(CN2CCC(O)CC2)c(O)c1`: the Kd was > 4 mM (inactive).
With `O=C(/C=C/c1ccccc1)c1ccc(O[C@@H]2O[C@H](CO)[C@@H](O)[C@H](O)[C@H]2O)cc1O` the figure was > 4 mM (inactive).
With `Cc1cc(=O)n2[nH]c(C)cc2n1` the figure was > 4 mM (inactive); with `O=C(CNC(=O)c1ccc(F)cc1)NC1=NCCS1`, > 4 mM (inactive); with `Nc1ccc2c(c1)N1CCN=C1S2`, > 4 mM (inactive).
As for `COC1=CC(C)[C@@H]2C[C@H]3OC(=O)C[C@H]4C(C)=C(OC)C(=O)C([C@@]34C)[C@@]2(C)C1=O` (stereo not given in full), the Kd is > 4 mM (inactive).
With `COC1C(O)C(O[C@H]2CC[C@]3(C=O)C4C(CC[C@]3(O)C2)[C@@]2(O)CC[C@H](C3=CC(=O)OC3)[C@@]2(C)C[C@H]4OC(C)=O)OC(C)C1OC(C)=O` (stereo not given in full) the figure was > 4 mM (inactive).
Under `O=C(O)c1ccc(-c2ccccn2)s1` stands > 4 mM (inactive); under `O=C(O)c1ccc2nccnc2c1`, > 4 mM (inactive).
With `Nc1ccc2ncsc2c1` the figure was > 4 mM (inactive); with `C[C@@H]1O[C@@H](O[C@H]2[C@H](Oc3cc(O)c4c(=O)cc(-c5ccc(O)cc5)oc4c3)O[C@H](CO)[C@@H](O)[C@@H]2O)[C@H](O)[C@H](O)[C@H]1O`, > 4 mM (inactive).
With `NCc1ccc(-c2ccccn2)s1`, the Kd is > 4 mM (inactive).
Take `O=C(Cn1cnc2ccccc2c1=O)N1CCOCC1`: the Kd was > 4 mM (inactive).
With `Cc1cc(C(=O)N2CCCCCC2)cs1` the figure was > 4 mM (inactive).
Under `COc1cc2c(cc1OC)[C@@H]1C(=O)c3ccc4c(c3O[C@@H]1CO2)C=CC(C)(C)O4` stands > 4 mM (inactive).
Under `C=CCNC(=O)c1ccc(Cl)cc1Cl` stands > 4 mM (inactive); under `CCC1(CC)C(=O)N=C(N)NC1=O`, > 4 mM (inactive); under `CCOC(=O)C1CCNCC1`, > 4 mM (inactive).
With `CCOC(=O)C1CCN(Cc2ccccc2)CC1`, the Kd was > 4 mM (inactive).
In the case of `CCN1CC2(C)CC[C@H](OC)[C@]34C2[C@H](O)C2(OCO[C@@]25C[C@H](OC)[C@H]2C[C@]3(O)C5[C@H]2O)C14`, the Kd was > 4 mM (inactive).
Under `CC(C)=CC(=O)Nc1ccc(S(N)(=O)=O)cc1` stands > 4 mM (inactive); under `Cc1ccccc1-n1c(-c2cccnc2)n[nH]c1=S`, > 4 mM (inactive).
With `Cc1ccccc1N1C(=O)CC(=O)NC1=O` the figure was > 4 mM (inactive); with `Cc1cc(C)nc(N(C#N)Cc2ccccc2)n1`, > 4 mM (inactive); with `Nc1ccc(NS(=O)(=O)c2ccc(N)cc2)cc1`, > 4 mM (inactive).
With `CCNC(CC(=O)Nc1ccc(F)cc1)C(=O)O` (stereo not given) the figure was > 4 mM (inactive).
With `CNC(=O)c1cccc(NC(=S)NC)c1`, the Kd is > 4 mM (inactive).
Under `NC1=NC(=O)/C(=C\c2cccnc2)S1` stands > 4 mM (inactive); under `CC(=O)Nc1ccc(C(=O)n2nc(C)cc2C)cc1`, > 4 mM (inactive); under `c1ccc(CCNc2ncnc3nc[nH]c23)cc1`, > 4 mM (inactive).
In the case of `O=C1C2C3C=CC(C3)C2C(=O)N1c1ccccn1` (stereo not given), the Kd was > 4 mM (inactive).
Consider `COc1ccc(-c2cc(=O)c3c(OC)c(OC)c(OC)c(OC)c3o2)cc1OC`, for which the Kd was > 4 mM (inactive).
Under `NC(=O)c1ccc(NC(=O)c2ccco2)cc1` stands > 4 mM (inactive).
Under `CCOC(=O)c1cc(C)n(-n2cnnc2)c1C` stands > 4 mM (inactive); under `COc1cc(OC)c(-c2nc3cnccc3n2C)cc1OC`, > 4 mM (inactive); under `CC(C)(C)C(=O)Nc1ncc(C(F)(F)F)cc1Cl`, > 4 mM (inactive).
Under `c1ccc(Cc2nnc3sc(-c4cccnc4)nn23)cc1` stands > 4 mM (inactive).
Regarding `CC(=O)Oc1ccc(/C=C/c2cc(OC(C)=O)cc(OC(C)=O)c2)cc1`, the Kd is > 4 mM (inactive).
With `C#CCCCCCCCCCCCC(=O)CC(O)COC(C)=O` (stereo not given) the figure was > 4 mM (inactive); with `O=C(NCc1ccccc1Br)c1cccs1`, below 0.2 mM; with `c1ccc(CCc2nc(-c3ccccn3)no2)cc1`, > 4 mM (inactive).
With `COc1ccc(N=C2NC(=O)CS2)cc1` the figure was > 4 mM (inactive); with `COc1c2c(cc3c1OCO3)CCN(C)C2`, > 4 mM (inactive); with `O=c1c2ccccc2nc2n1CCS2`, > 4 mM (inactive).
For `CC(=O)N1CC2(C)CN(C(C)=O)CC(C)(C1)C2`, the Kd is > 4 mM (inactive).
Under `COc1ccc2ccc(=O)oc2c1CC=C(C)C` stands > 4 mM (inactive).
`CN1CCCC1C(=O)O` (stereo not given): the Kd is > 4 mM (inactive).
With `O=c1[nH]c2ccccc2c(=O)n1CCCO` the figure was > 4 mM (inactive); with `CC(C)(O)[C@@H]1[C@H]2OC(=O)[C@@H]1[C@]1(O)C[C@H]3O[C@]34C(=O)O[C@H]2[C@]14C`, > 4 mM (inactive).
Consider `Nc1cc(=O)[nH]c(=S)n1-c1ccc(F)cc1`, for which the Kd was > 4 mM (inactive).

Values taken from PubChem BioAssay AID1033 (Sanford-Burnham Center for Chemical Genomics, 2008).
